These results are taken from US10072003B2, “Tetrahydronaphthyridine derivatives as mGluR2-negative allosteric modulators, compositions, and their use” (Merck Sharp & Dohme Corp., priority 2014, dated 2018).

recombinant human mGluR2, sequence (Q14416 19-872): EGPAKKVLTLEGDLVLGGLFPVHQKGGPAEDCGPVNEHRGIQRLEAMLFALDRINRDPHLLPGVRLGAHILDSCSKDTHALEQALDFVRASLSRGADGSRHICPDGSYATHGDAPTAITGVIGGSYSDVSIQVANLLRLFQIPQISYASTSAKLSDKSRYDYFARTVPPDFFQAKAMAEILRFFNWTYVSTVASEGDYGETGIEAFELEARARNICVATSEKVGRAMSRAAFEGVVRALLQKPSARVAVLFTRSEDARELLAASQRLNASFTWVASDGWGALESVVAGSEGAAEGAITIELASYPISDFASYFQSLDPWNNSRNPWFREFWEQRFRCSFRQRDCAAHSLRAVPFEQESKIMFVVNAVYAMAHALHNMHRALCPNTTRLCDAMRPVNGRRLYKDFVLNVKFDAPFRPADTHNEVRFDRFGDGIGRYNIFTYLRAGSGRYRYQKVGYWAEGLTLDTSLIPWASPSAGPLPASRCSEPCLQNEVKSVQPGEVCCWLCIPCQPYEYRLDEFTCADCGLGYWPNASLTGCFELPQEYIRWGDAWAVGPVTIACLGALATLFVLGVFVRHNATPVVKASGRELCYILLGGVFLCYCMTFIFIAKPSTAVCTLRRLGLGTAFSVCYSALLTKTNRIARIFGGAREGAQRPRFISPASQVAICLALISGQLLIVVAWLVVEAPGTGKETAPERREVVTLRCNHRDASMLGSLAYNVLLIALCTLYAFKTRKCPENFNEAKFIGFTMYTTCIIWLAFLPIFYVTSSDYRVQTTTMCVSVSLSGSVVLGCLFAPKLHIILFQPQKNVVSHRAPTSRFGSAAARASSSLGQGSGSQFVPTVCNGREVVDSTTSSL

The test addresses recombinant human mGluR2 (Homo sapiens (Human), UniProt Q14416). The test is described as follows: FLIPR Ca2+ mobilization antagonist assay in CHO dhfr- cells expressing human mGluR2 and Gα16. It is filed as cell-based. Particulars: antagonist response after addition of 2,500 nM glutamate, Fluo-4 AM, FLIPR384. As to the method: Antagonist constants are determined as follows. The compounds of the invention were tested in a fluorescence laser imaging plate reader based assay. This assay is a common functional assay to monitor Ca2+ mobilization in whole cells expressing recombinant receptor coupled with a promiscuous G-protein. CHO dhfr-cells stably expressing recombinant human mGluR2 and Gα16 loaded with Fluo-4 AM (Invitrogen, Carlsbad Calif.) were treated with various concentrations of antagonists of compounds and the Ca2+ response was monitored on a FLIPR384 (Molecular Devices, Sunnydale Calif.) for agonist activity. Then 2,500 nM glutamate was added and the antagonist response was monitored. The maximum calcium response at each concentration of compound for agonist or antagonist were plotted as dose responses and the curves were fitted with a four parameter logistic equation giving IC50 and Hill coefficient using the iterative non linear curve fitting software ADA (Merck & Co). Data in the following table represent activities in the antagonist assay.
On to `COC1CCN(c2cc(C(N)=O)nc3c2CCN(Cc2ccnn2C(C)C)C3C)CC1` (single isomer, unassigned) [Example 1-22, (S) or (R)-4-(4-methoxypiperidin-1-yl)-8-methyl-7-{[1-(1-methylethyl)-1H-pyrazol-5-yl]methyl}-5,6,7,8-tetrahydro-1,7-naphthyridine-2-carboxamide], for which the IC50 is 50.6 nM. On to `CC1(CN2CCc3c(-c4ccc(Cl)cc4F)cc(C(N)=O)nc3C2)COC1` [Example 10-1, 4-(4-chloro-2-fluorophenyl)-7-((3-methyloxetan-3-yl)methyl)-5,6,7,8-tetrahydro-1,7-naphthyridine-2-carboxamide], for which the IC50 was 31 nM.

On to `Cc1ncc(-c2cc(C(N)=O)nc3c2CCN(Cc2ccnn2C)C3)s1` [Example 6-4, 7-[(1-methyl-1H-pyrazol-5-yl)methyl]-4-(2-methyl-1,3-thiazol-5-yl)-5,6,7,8-tetrahydro-1,7-naphthyridine-2-carboxamide], for which the IC50 was found to be 119 nM. With `NC(=O)c1cc(-c2ccc(F)cc2F)c2c(n1)CN(C(CO)c1ccccc1)CC2` (racemic) [Example 8-2B, (S) and (R)-4-(2,4-difluorophenyl)-7-(2-hydroxy-1-phenylethyl)-5,6,7,8-tetrahydro-1,7-naphthyridine-2-carboxamide], the IC50 worked out at 11.5 nM. For `NC(=O)c1cc(-c2ccc(Cl)cn2)c2c(n1)CN(Cc1ccnn1C(F)F)CC2` [Example 2-22, 4-(5-chloropyridin-2-yl)-7-{[1-(difluoromethyl)-1H-pyrazol-5-yl]methyl}-5,6,7,8-tetrahydro-1,7-naphthyridine-2-carboxamide], the IC50 worked out at 19.4 nM.

As for `Cc1ccc(-c2cc(C(N)=O)nc3c2CCN(Cc2ccnn2C(C)C)C3)c(F)c1` [Example 1-12, 4-(2-fluoro-4-methylphenyl)-7-{[1-(1-methylethyl)-1H-pyrazol-5-yl]methyl}-5,6,7,8-tetrahydro-1,7-naphthyridine-2-carboxamide], the IC50 amounted to 9.9 nM. With `NC(=O)c1cc(-c2ccc(F)cc2)c2c(n1)CN(C[C@@H]1CCN[C@H](C(F)(F)F)C1)CC2` [Example 1-1B, 4-(4-fluorophenyl)-7-(((2S,4R)-2-(trifluoromethyl)piperidin-4-yl)methyl)-5,6,7,8-tetrahydro-1,7-naphthyridine-2-carboxamide], the IC50 turned out to be 98.2 nM. For the molecule `NC(=O)c1cc(-c2c(F)cc(Cl)cc2F)c2c(n1)CN(Cc1ccnc(C(F)(F)F)n1)CC2` [Example 11-9, 4-(4-chloro-2,6-difluorophenyl)-7-{[2-(trifluoromethyl)pyrimidin-4-yl]methyl}-5,6,7,8-tetrahydro-1,7-naphthyridine-2-carboxamide], the IC50 amounted to 6.5 nM. As for `CC1c2nc(C(N)=O)cc(-c3ccc(F)cc3F)c2CCN1Cc1ccnn1C(C)C` (single isomer, unassigned) [Example 1-15A, (S) or (R)-4-(2,4-difluorophenyl)-8-methyl-7-{[1-(1-methylethyl)-1H-pyrazol-5-yl]methyl}-5,6,7,8-tetrahydro-1,7-naphthyridine-2-carboxamide], the IC50 amounted to 5.8 nM. In the case of `Cc1noc(CN2CCc3c(-c4ccc(Cl)cc4F)cc(C(N)=O)nc3C2)n1` [Example 9-5, 4-(4-chloro-2-fluorophenyl)-7-[(3-methyl-1,2,4-oxadiazol-5-yl)methyl]-5,6,7,8-tetrahydro-1,7-naphthyridine-2-carboxamide], the IC50 was determined as 12.7 nM. The result for `NC(=O)c1ccc(CN2CCc3c(-c4ccc(F)cc4)cc(C(N)=O)nc3C2)cc1` [Example 2-3, 7-(4-carbamoylbenzyl)-4-(4-fluorophenyl)-5,6,7,8-tetrahydro-1,7-naphthyridine-2-carboxamide] reads 117 nM; that for `NC(=O)c1cccc(CN2CCc3c(-c4ccc(F)cc4)cc(C(N)=O)nc3C2)c1` [Example 2-1, 7-(3-carbamoylbenzyl)-4-(4-fluorophenyl)-5,6,7,8-tetrahydro-1,7-naphthyridine-2-carboxamide], 52.7 nM. The result for `Cn1nnnc1CN1CCc2c(-c3ccc(F)cc3F)cc(C(N)=O)nc2C1` [Example 2-18, 4-(2,4-difluorophenyl)-7-[(1-methyl-1H-tetrazol-5-yl)methyl]-5,6,7,8-tetrahydro-1,7-naphthyridine-2-carboxamide] reads 49.5 nM.

`NC(=O)c1cc(-c2ccc(Cl)cn2)c2c(n1)CN(Cc1ccnc(C(F)(F)F)c1)CC2` [Example 6-1, 4-(5-chloropyridin-2-yl)-7-((2-(trifluoromethyl)pyridin-4-yl)methyl)-5,6,7,8-tetrahydro-1,7-naphthyridine-2-carboxamide]: the IC50 came to 11.7 nM. As for `Cc1cn(-c2cc(C(N)=O)nc3c2CCN(Cc2ccnc(C(F)(F)F)c2)C3)cn1` [Example 5-1, 4-(4-methyl-1H-imidazol-1-yl)-7-((2-(trifluoromethyl)pyridin-4-yl)methyl)-5,6,7,8-tetrahydro-1,7-naphthyridine-2-carboxamide], the IC50 was 115 nM. As to `NC(=O)c1cc(-c2ccc(F)cc2F)c2c(n1)CN(CC1CCOC(C3CCC3)C1)CC2` (single isomer, unassigned) [Example 1-14, 7-(((2S,4R) or (2R,4S)-2-cyclobutyltetrahydro-2H-pyran-4-yl)methyl)-4-(2,4-difluorophenyl)-5,6,7,8-tetrahydro-1,7-naphthyridine-2-carboxamide], the IC50 worked out at 40.3 nM.

As for `NC(=O)c1cc(-c2c(F)cccc2Cl)c2c(n1)CN(Cc1ccnc(C(F)(F)F)n1)CC2` [Example 11-7, 4-(2-chloro-6-fluorophenyl)-7-{[2-(trifluoromethyl)pyrimidin-4-yl]methyl}-5,6,7,8-tetrahydro-1,7-naphthyridine-2-carboxamide], the IC50 is 45.2 nM. Take `NC(=O)c1cc(-c2ccc(F)cc2F)c2c(n1)CN(C(CO)c1ccccc1)CC2` (racemic) [Example 8-2A, (S) and (R)-4-(2,4-difluorophenyl)-7-(2-hydroxy-1-phenylethyl)-5,6,7,8-tetrahydro-1,7-naphthyridine-2-carboxamide]: the IC50 was found to be 9.9 nM. Regarding `NC(=O)c1cc(-c2ccccc2F)c2c(n1)CN(Cc1ccnc(C(F)(F)F)n1)CC2` [Example 11-8, 4-(2-fluorophenyl)-7-{[2-(trifluoromethyl)pyrimidin-4-yl]methyl}-5,6,7,8-tetrahydro-1,7-naphthyridine-2-carboxamide], the IC50 was determined as 11.8 nM. Consider `Cn1cncc1CN1CCc2c(-c3ccc(Cl)cc3F)cc(C(N)=O)nc2C1` [Example 1-16, 4-(4-chloro-2-fluorophenyl)-7-[(1-methyl-1H-imidazol-5-yl)methyl]-5,6,7,8-tetrahydro-1,7-naphthyridine-2-carboxamide], for which the IC50 was 14.1 nM. As for `COc1ccc(-c2cc(C(N)=O)nc3c2CCN(Cc2ccnc(OC)c2)C3)c(F)c1` [Example 13-2, 4-(2-fluoro-4-methoxyphenyl)-7-[(2-methoxypyridin-4-yl)methyl]-5,6,7,8-tetrahydro-1,7-naphthyridine-2-carboxamide], the IC50 amounted to 6.6 nM. Consider `NC(=O)c1cc(-c2cc(F)ccc2F)c2c(n1)CN(Cc1ccnc(C(F)(F)F)n1)CC2` [Example 11-2, 4-(2,5-difluorophenyl)-7-{[2-(trifluoromethyl)pyrimidin-4-yl]methyl}-5,6,7,8-tetrahydro-1,7-naphthyridine-2-carboxamide], for which the IC50 was 52.1 nM.

`NC(=O)c1cc(-c2ccc(F)cc2)c2c(n1)CN(C[C@@H]1CCO[C@H](C3CC3)C1)CC2` [Example 1-2A, 7-(((2S,4R)-2-cyclopropyltetrahydro-2H-pyran-4-yl)methyl)-4-(4-fluorophenyl)-5,6,7,8-tetrahydro-1,7-naphthyridine-2-carboxamide]: the IC50 stood at 129 nM.

Turning to `NC(=O)c1cc(N2CCC(F)(F)CC2)c2c(n1)CN(Cc1ccnc(C(F)(F)F)n1)CC2` [Example 12-1, 4-(4,4-difluoropiperidin-1-yl)-7-((2-(trifluoromethyl)pyrimidin-4-yl)methyl)-5,6,7,8-tetrahydro-1,7-naphthyridine-2-carboxamide], the IC50 was 40.9 nM. For the molecule `CC1(C)CCC(CN2CCc3c(-c4ccc(F)cc4F)cc(C(N)=O)nc3C2)CO1` (single isomer, unassigned) [Example 1-20, (S) or (R)-4-(2,4-difluorophenyl)-7-[(6,6-dimethyltetrahydro-2H-pyran-3-yl)methyl]-5,6,7,8-tetrahydro-1,7-naphthyridine-2-carboxamide], the IC50 was 24.4 nM. Take `CC(c1cnnn1C)N1CCc2c(-c3ccc(F)cc3F)cc(C(N)=O)nc2C1` (single isomer, unassigned) [Example 7-1, (S) or (R)-4-(2,4-difluorophenyl)-7-(1-(1-methyl-1H-1,2,3-triazol-5-yl)ethyl)-5,6,7,8-tetrahydro-1,7-naphthyridine-2-carboxamide]: the IC50 came to 37.4 nM. With `NC(=O)c1cc(-c2ccc(F)cc2)c2c(n1)CN(Cc1ccccc1C(N)=O)CC2` [Example 2-2, 7-(2-carbamoylbenzyl)-4-(4-fluorophenyl)-5,6,7,8-tetrahydro-1,7-naphthyridine-2-carboxamide] the figure was 28.2 nM; with `NC(=O)c1cc(-c2ccc(F)cc2F)c2c(n1)CN(CC(O)c1ccccc1)CC2` (racemic) [Example 8-1A, (S) and (R)-4-(2,4-difluorophenyl)-7-(2-hydroxy-2-phenylethyl)-5,6,7,8-tetrahydro-1,7-naphthyridine-2-carboxamide], 18.5 nM; with `CC1(C)CC(O)(CN2CCc3c(-c4ccc(F)cc4F)cc(C(N)=O)nc3C2(C)C)CO1` (single isomer, unassigned) [Example 15-1A], 24.9 nM.
